ChEMBL document CHEMBL1144119, “1',2',3',4'-tetradehydrotubulosine, a cytotoxic alkaloid from Pogonopus speciosus” (1999)
Values after ≈ are worked out from the molar mass of the structure shown.

Experiments:
Format in all cases: functional
Col2 = assay: Cytotoxicity against human Col2 cells; details: read-out: ED50 (the source's name)
KB [1] = assay: Cytotoxicity against human KB cells; details: read-out: ED50 (the source's name)
SW626 = assay: Cytotoxicity against human SW626 cells; details: read-out: ED50 (the source's name)
SK-N-SH = assay: Cytotoxicity against human SK-N-SH cells; details: read-out: ED50 (the source's name)
KB [2] = assay: Cytotoxicity against human multidrug resistant KB cells in presence of vinblastine; details: read-out: ED50 (the source's name)
[3] = Cytotoxicity against human BC1 cells; details: read-out: ED50 (the source's name)
M109 = assay: Cytotoxicity against mouse M109 cells; details: read-out: ED50 (the source's name)
LNCaP = assay: Cytotoxicity against human LNCAP cells; details: read-out: ED50 (the source's name)
Lu1 = assay: Cytotoxicity against human Lu1 cells; details: read-out: ED50 (the source's name)
KB [4] = assay: Cytotoxicity against human multidrug resistant KB cells in absence of vinblastine; details: read-out: ED50 (the source's name)
P388 = assay: In vivo antitumor activity against mouse P388 cells assessed as increase in life span at 2 mg/kg
L1210 = assay: In vivo antitumor activity against mouse L1210 cells assessed as increase in life span at 2 mg/kg

Row | SMILES | EC50 (Col2) [µg/mL] | EC50 (KB [1]) [µg/mL] | EC50 (SW626) [µg/mL] | EC50 (SK-N-SH) [µg/mL] | EC50 (KB [2]) [µg/mL] | EC50 [3] [µg/mL] | EC50 (M109) [µg/mL] | EC50 (LNCaP) [µg/mL] | EC50 (Lu1) [µg/mL] | EC50 (KB [4]) [µg/mL] | Activity (P388) [%] | Activity (L1210) [%]
1 | CC[C@H]1CN2CCc3cc(OC)c(OC)cc3[C@@H]2C[C@@H]1Cc1nccc2c1[nH]c1ccc(O)cc12 | 2.8 (≈ 5.94 µM) | 2.2 (≈ 4.66 µM) | 6.1 (≈ 12.9 µM) | 4 (≈ 8.48 µM) | 9 | 3.9 (≈ 8.27 µM) | 4.4 (≈ 9.33 µM) | 6.8 (≈ 14.4 µM) | 3.6 (≈ 7.63 µM) | 8.8 (≈ 18.7 µM) |  | 
2 | CC[C@H]1CN2CCc3cc(OC)c(OC)cc3[C@@H]2C[C@@H]1CC1=NCCc2cc(O)c(OC)cc21 [PSYCHOTRINE] | 4.5 (≈ 9.69 µM) | 2.8 (≈ 6.03 µM) | 13.3 (≈ 28.6 µM) | 4 (≈ 8.61 µM) | 9 | 3.4 (≈ 7.32 µM) | 9 (≈ 19.4 µM) | 2.3 (≈ 4.95 µM) | 5.7 (≈ 12.3 µM) | 9.4 (≈ 20.2 µM) |  | 
3 | CC[C@H]1CN2CCc3cc(OC)c(OC)cc3[C@@H]2C[C@@H]1C[C@H]1NCCc2c1[nH]c1ccc(O)cc21 [TUBULOSINE] | 0.05 (≈ 0.105 µM) | < 0.16 | 0.22 (≈ 0.463 µM) | 0.1 (≈ 0.21 µM) | 0.1 | 0.1 (≈ 0.21 µM) | 0.1 (≈ 0.21 µM) | < 0.16 | < 0.001 | 0.1 (≈ 0.21 µM) | 80 | 30
